Earlier results as cited in patent US6528013B1, “Uncomplexed cyclodextrin compositions for odor and wrinkle control” (The Procter & Gamble Company, priority 1998, dated 2003).

SMILES	solubility in water
OCCOc1ccccc1 [2-phenoxyethanol]	about 2.67%
OCCc1ccccc1 [2-phenylethanol]	about 2%
O=[N+]([O-])C1(Br)COCOC1 [Bronidox L, 5-bromo-5-nitro-1,3-dioxane]	about 0.46%
O=[N+]([O-])C(Br)(CO)CO [Bronopol, 2-bromo-2-nitropropane-1,3-diol]	about 25%
CC1(C)C(=O)N(CO)C(=O)N1CO [DMDM hydantoin, 1,3-bis(hydroxymethyl)-5,5-dimethyl-2,4-imidazolidinedione]	more than 50%
ClC=CC[N+]12CN3CN(CN(C3)C1)C2.[Cl-] [Dowicil 200, 1-(3-Chlorallyl)-3,5,7-triaza-1-azoniaadamantane chloride]	freely soluble in water
OCc1ccccc1 [benzyl alcohol]	about 4%
[H]/N=C(\N/C(=N/[H])NCCCCCCNC(=N)NC(=N)Nc1ccc(Cl)cc1)Nc1ccc(Cl)cc1 [chlorhexidine diacetate, 1,1′-hexamethylene bis(5-(p-chlorophenyl)biguanide), reference compound]	about 1.8%
[H]/N=C(\N/C(=N/[H])NCCCCCCNC(=N)NC(=N)Nc1ccc(Cl)cc1)Nc1ccc(Cl)cc1 [chlorhexidine digluconate, 1,1′-hexamethylene bis(5-(p-chlorophenyl)biguanide), reference compound]	about 70%
CC(C)(O)C(Cl)(Cl)Cl [chlorobutanol, 1,1,1-Trichloro-2-methylpropan-2-ol, reference compound]	about 0.8%
[Na+].[O-][n+]1ccccc1[S-] [sodium pyrithione]	about 50%
